The term IC50 denotes the concentration at which inhibition is half-maximal.

Results on 23 compounds are retold here after publication PMC6321525 (Molecules, 2018).

“And” between values parts separate entries of the source, which are not always exact repeats. Equal entries are not always repeated.

Assay in all cases: biochemical
What all share (type): biochemical

Assay [1] addresses T1, EfBChE (butyrylcholinesterase from equine serum) (Equus caballus, UniProt P81908).
T1 construct: EfBChE from equine serum (Equus ferus); from tissue; host or cells: equine serum
The note with it: for SI, selectivity index based on IC50 values (EeAChE vs EfBChE): ratio of EfBChE to EeAChE IC50 values; for IC50: with standard error, 25 °C, 10 min preincubation, read-out: IC50, inhibition of EfBChE; for fold better than donepezil against EfBChE: ratio of IC50 values. The method, then:
(§1) Experiments were performed as previously described. […] All assays were performed in duplicate or triplicate.

In assay [2] the target is EeAChE (acetylcholinesterase from Electrophorus electricus) (Electrophorus electricus, UniProt O42275). Conditions: for fold enhanced potency against EeAChE compared to donepezil: ratio of IC50 values; for IC50: with standard error, 25 °C, 10 min preincubation, read-out: IC50, inhibition of EeAChE. Here is the method:
as §1

Assay [3] has as its target HsAChE (acetylcholinesterase from Homo sapiens) (Homo sapiens, UniProt P22303). Here is the method: as §1
For a further assay, the target named is T2, BACE1 (Homo sapiens, UniProt P56817).
T2 construct: purchased Millipore-Sigma CS0010-1KT
The note with it: for IC50: fluorescence after 2 h, read-out: IC50, inhibition of BACE1. The method, then: Inhibition of BACE1 was tested using the commercial kit (cat CS0010-1KT, Millipore-Sigma, St. Louis, MO, USA) following the directions accompanying the kit. […] Dilutions were originally performed in DMSO, and 2 μL added to the reaction in order to account for any moderation of activity from the vehicle. Fluorescent measurements were taken after 2 h. The resulting rates were normalized to the reaction without inhibitor. In order to get an appropriate sigmoidal fit, two additional points (400 and 1000 μM) were added to the data when needed.

T1 sequence (P81908 whole entry): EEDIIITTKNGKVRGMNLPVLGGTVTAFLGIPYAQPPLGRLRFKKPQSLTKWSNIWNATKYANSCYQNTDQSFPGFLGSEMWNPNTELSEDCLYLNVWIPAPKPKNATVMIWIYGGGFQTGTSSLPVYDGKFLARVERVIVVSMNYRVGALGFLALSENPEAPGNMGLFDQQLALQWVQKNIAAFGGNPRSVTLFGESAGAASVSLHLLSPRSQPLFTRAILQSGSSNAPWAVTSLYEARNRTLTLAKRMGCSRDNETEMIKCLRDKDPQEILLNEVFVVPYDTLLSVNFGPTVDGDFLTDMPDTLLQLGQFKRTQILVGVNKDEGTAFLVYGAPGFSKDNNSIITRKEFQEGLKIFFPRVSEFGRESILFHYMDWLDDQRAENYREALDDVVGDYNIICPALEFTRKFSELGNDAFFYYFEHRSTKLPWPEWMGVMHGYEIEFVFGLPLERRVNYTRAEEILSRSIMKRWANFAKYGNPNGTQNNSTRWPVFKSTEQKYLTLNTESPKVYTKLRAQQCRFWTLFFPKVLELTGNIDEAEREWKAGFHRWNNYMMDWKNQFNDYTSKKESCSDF
Sequence of EeAChE (acetylcholinesterase from Electrophorus electricus) (O42275 24-633): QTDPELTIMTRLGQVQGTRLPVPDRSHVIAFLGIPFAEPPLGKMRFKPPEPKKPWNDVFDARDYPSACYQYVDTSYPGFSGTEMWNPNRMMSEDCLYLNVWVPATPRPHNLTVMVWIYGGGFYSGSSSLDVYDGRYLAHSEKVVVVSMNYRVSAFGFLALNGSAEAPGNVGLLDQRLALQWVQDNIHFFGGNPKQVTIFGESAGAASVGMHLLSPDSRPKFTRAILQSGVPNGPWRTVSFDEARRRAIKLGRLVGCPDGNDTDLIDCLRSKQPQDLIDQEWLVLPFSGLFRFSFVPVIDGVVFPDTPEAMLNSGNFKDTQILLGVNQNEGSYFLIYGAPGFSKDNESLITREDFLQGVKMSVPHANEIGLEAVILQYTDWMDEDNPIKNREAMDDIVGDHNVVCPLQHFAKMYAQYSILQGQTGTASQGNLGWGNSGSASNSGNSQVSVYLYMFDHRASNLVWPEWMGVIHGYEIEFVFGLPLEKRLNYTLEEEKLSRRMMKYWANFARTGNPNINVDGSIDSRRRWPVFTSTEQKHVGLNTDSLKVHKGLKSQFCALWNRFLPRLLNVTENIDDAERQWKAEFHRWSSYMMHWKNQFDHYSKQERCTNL
Sequence of HsAChE (acetylcholinesterase from Homo sapiens) (P22303 32-614): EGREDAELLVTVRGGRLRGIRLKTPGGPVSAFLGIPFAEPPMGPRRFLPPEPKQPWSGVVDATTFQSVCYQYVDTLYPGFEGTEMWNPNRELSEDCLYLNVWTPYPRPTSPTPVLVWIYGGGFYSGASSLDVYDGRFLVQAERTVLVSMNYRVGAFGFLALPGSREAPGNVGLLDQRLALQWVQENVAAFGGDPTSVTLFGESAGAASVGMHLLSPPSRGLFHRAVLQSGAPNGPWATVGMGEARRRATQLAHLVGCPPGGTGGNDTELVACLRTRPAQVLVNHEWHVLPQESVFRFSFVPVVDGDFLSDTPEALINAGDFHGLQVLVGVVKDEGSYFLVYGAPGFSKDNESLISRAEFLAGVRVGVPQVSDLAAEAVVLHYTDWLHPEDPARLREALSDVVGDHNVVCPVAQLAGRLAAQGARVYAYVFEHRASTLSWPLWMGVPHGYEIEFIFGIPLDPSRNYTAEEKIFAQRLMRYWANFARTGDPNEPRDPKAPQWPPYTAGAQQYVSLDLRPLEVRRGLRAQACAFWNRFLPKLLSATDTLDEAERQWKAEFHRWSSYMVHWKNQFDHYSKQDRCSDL
T2 sequence (P56817 46-457): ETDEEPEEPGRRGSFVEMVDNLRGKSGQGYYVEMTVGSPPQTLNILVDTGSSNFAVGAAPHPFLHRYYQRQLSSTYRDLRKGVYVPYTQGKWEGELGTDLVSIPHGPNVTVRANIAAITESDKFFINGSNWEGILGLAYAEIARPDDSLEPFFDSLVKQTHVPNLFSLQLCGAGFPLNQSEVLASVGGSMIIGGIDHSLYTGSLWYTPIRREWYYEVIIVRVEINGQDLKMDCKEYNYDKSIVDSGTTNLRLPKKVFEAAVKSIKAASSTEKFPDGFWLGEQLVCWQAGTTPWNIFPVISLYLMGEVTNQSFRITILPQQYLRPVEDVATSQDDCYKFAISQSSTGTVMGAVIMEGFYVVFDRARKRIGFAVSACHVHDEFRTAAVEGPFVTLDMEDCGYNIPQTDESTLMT

For the compound `COc1cc2c(cc1OCc1ccc(Br)cc1F)C(=O)C(CC1CCN(Cc3ccccc3)CC1)C2` (centres unmarked) [Compound 8t], in assay [1], the “SI, selectivity index based on IC50 values (EeAChE vs EfBChE)” value (from here on “SI, selectivity index based”) is 6.9. The IC50 in assay [1] is 0.372 µM and 0.37 µM; in assay [2], 0.054 ± 0.007 µM; in assay [3] (37 °C, read-out: IC50, inhibition of HsAChE), 0.0018 ± 0.0006 µM; at BACE1, 169 ± 2 µM. In assay [2], the “fold enhanced potency against EeAChE compared to donepezil” value (shortened to “fold enhanced potency against EeAChE”) is listed as 2.2 fold. In addition, the “SI, selectivity index of EeAChE versus HsAChE, based on IC50 values” in assay [3] was found to be 30. The “fold better inhibition of HsAChE than donepezil” value in assay [3] (ratio of IC50 values) turned out to be 18 fold.
As to `COc1cc2c(cc1OCc1c(F)cc(F)cc1F)C(=O)C(CC1CCN(Cc3ccccc3)CC1)C2` (centres unmarked) [Compound 8u], in assay [1], the “SI, selectivity index based” value was found to be 7.4; the “fold better than donepezil against EfBChE” value (from here on “fold better than donepezil”) turned out to be 10 fold; the IC50 was 0.199 µM and 0.2 µM. Besides, in assay [2], the “fold enhanced potency against EeAChE” value was “five” and the IC50 turned out to be 0.027 ± 0.004 µM. The half-inhibitory concentration (IC50) on BACE1 worked out at 91 ± 14 µM.
As to `COc1cc2c(cc1OCc1ccccc1C(F)(F)F)C(=O)C(CC1CCN(Cc3ccccc3)CC1)C2` (centres unmarked) [Compound 8p], in assay [1], the “SI, selectivity index based” value is recorded as 7.8; the “fold better than donepezil” value stood at 8 fold; the IC50 is 0.254 µM and 0.25 µM. In assay [2], the “fold enhanced potency against EeAChE” value turned out to be 4 fold and the IC50 worked out at 0.032 ± 0.01 µM. Besides, the IC50 at BACE1 came out at 34 ± 9 µM.
`COc1cc2c(cc1OCCN)C(=O)C(CC1CCN(Cc3ccccc3)CC1)C2` (centres unmarked) [Compound 8b, 6-[(3-Aminoethyl)oxy]-2-[(1-benzylpiperidin-4-yl)methyl]-5-methoxy-2,3-dihydroinden-1-one]: in assay [1], the “SI, selectivity index based” value is 23; the “fold better than donepezil” value came to 4 fold; the half-inhibitory concentration (IC50) was 0.478 µM and 0.48 µM. In assay [2], the “fold enhanced potency against EeAChE” value stood at 6 fold and the half-inhibitory concentration (IC50) is 0.021 ± 0.003 µM. Moreover, the IC50 at BACE1 is around 100 µM.
With `COc1cc2c(cc1OCCCl)C(=O)C(CC1CCN(Cc3ccccc3)CC1)C2` (centres unmarked) [Compound 8d, 2-[(1-Benzylpiperidin-4-yl)methyl]-6-[(chloroethyl)oxy]-5-methoxy-2,3-dihydroinden-1-one], in assay [1], the “SI, selectivity index based” value is recorded as 22; the “fold better than donepezil” value was determined as 2 fold; the 50% inhibitory concentration (IC50) worked out at 1.3 ± 0.1 µM. For the same compound, in assay [2], the “fold enhanced potency against EeAChE” value is 2 fold and the half-maximal inhibitory concentration (IC50) is 0.059 ± 0.004 µM. Besides, the IC50 at BACE1 is around 100 µM.
With `COc1cc2c(cc1OCc1ccc(F)cc1F)C(=O)C(CC1CCN(Cc3ccccc3)CC1)C2` (centres unmarked) [Compound 8q], the “SI, selectivity index based” value in assay [1] worked out at 4.4. In addition, in assay [1], the “fold better than donepezil” value was 4 fold. Also, the half-inhibitory concentration (IC50) in assay [1] is 0.483 µM and 0.48 µM; in assay [2], 0.113 µM and 0.11 µM; on BACE1, 37 ± 5 µM.
On to `COc1cc2c(cc1OCc1ccc(F)cc1)C(=O)C(CC1CCN(Cc3ccccc3)CC1)C2` (centres unmarked) [Compound 8m], for which, in assay [1], the “SI, selectivity index based” value is recorded as 7.0. Further, the IC50 was 0.57 ± 0.1 µM in assay [1], 0.081 ± 0.005 µM in assay [2] and around 100 µM at BACE1.
With `COc1cc2c(cc1OCc1c(F)cccc1F)C(=O)C(CC1CCN(Cc3ccccc3)CC1)C2` (centres unmarked) [Compound 8s], in assay [1], the “SI, selectivity index based” value was 28; the “fold better than donepezil” value is recorded as 5 fold; the half-inhibitory concentration (IC50) was 0.438 µM and 0.44 µM. Further, in assay [2], the “fold enhanced potency against EeAChE” value is “eight” and the concentration for half-maximal inhibition (IC50) came out at 0.016 ± 0.001 µM. The half-inhibitory concentration (IC50) on BACE1 was found to be 30 ± 8 µM.
As to `COc1cc2c(cc1OCc1ccccc1)C(=O)C(CC1CCN(Cc3ccccc3)CC1)C2` (centres unmarked) [Compound 8h], in assay [1], the “SI, selectivity index based” value came out at 5.4; the “fold better than donepezil” value was 3 fold; the IC50 was 0.704 µM and 0.7 µM. Further, the 50% inhibitory concentration (IC50) in assay [2] was 0.131 µM and 0.13 µM. The IC50 at BACE1 worked out at 58 ± 1 µM.
On to `COc1cc2c(cc1OCCCN)C(=O)C(CC1CCN(Cc3ccccc3)CC1)C2` (centres unmarked) [Compound 8a, 6-[(3-Aminopropyl)oxy]-2-[(1-benzylpiperidin-4-yl)methyl]-5-methoxy-2,3-dihydroinden-1-one], for which, in assay [1], the “SI, selectivity index based” value came to 11. In addition, the “fold better than donepezil” value in assay [1] is recorded as 4 fold. Besides, the IC50 in assay [1] was 0.573 µM and 0.57 µM; in assay [2] it was 0.054 ± 0.003 µM; on BACE1 it was 95 ± 12 µM.
As for `COc1cc2c(cc1O)C(=O)C(CC1CCN(Cc3ccccc3)CC1)C2` (centres unmarked) [Compound 7, 2-[(1-Benzylpiperidin-4-yl)methyl]-6-hydroxy-5-methoxy-2,3-dihydroinden-1-one], in assay [1], the “SI, selectivity index based” value amounted to 11 and the IC50 is 4.3 ± 0.4 µM. Further, the half-maximal inhibitory concentration (IC50) in assay [2] is 0.409 µM and 0.41 µM.
For `COc1cc2c(cc1OCc1ccccc1F)C(=O)C(CC1CCN(Cc3ccccc3)CC1)C2` (centres unmarked) [Compound 8o], in assay [1], the “SI, selectivity index based” value amounted to 6.3. Moreover, the IC50 in assay [1] is 0.764 µM and 0.76 µM; in assay [2], 0.124 µM and 0.12 µM; on BACE1 it was 21 ± 4 µM.
Consider `COc1cc2c(cc1OCc1cccc(F)c1)C(=O)C(CC1CCN(Cc3ccccc3)CC1)C2` (centres unmarked) [Compound 8n], for which the “SI, selectivity index based” value in assay [1] came out at 6.0. Besides, the 50% inhibitory concentration (IC50) in assay [1] is 0.959 µM and 0.96 µM; in assay [2], 0.156 µM and 0.16 µM; at BACE1, 12 ± 3 µM.
Consider `COc1cc2c(cc1OCCCCCCCCCCCCBr)C(=O)C(CC1CCN(Cc3ccccc3)CC1)C2` (centres unmarked) [Compound 8g, 2-[(1-Benzylpiperidin-4-yl)methyl]-6-[(bromododecyl)oxy]-5-methoxy-2,3-dihydroinden-1-one], for which, in assay [1], the “SI, selectivity index based” value amounted to 6.6; the IC50 was 5.15 µM and 5.2 µM. Also, the half-maximal inhibitory concentration (IC50) in assay [2] was 0.789 µM and 0.79 µM.
For the compound `COc1cc2c(cc1OCCBr)C(=O)C(CC1CCN(Cc3ccccc3)CC1)C2` (centres unmarked) [Compound 8e, 2-[(1-Benzylpiperidin-4-yl)methyl]-6-[(bromoethyl)oxy]-5-methoxy-2,3-dihydroinden-1-one], in assay [1], the “SI, selectivity index based” value turned out to be 30; the “fold better than donepezil” value is given as 2 fold; the concentration for half-maximal inhibition (IC50) is 1.29 µM and 1.3 µM. Besides, in assay [2], the “fold enhanced potency against EeAChE” value was found to be 3 fold and the IC50 came out at 0.044 ± 0.003 µM. In addition, on BACE1, the “BACE1 IC50 within fold of the IC50 of donepezil” value (“BACE1 IC50 within fold” for short) was at most 5 fold and the IC50 was 7.9 ± 0.9 µM.
On to `COc1cc2c(cc1OCc1ccc(Br)cc1)C(=O)C(CC1CCN(Cc3ccccc3)CC1)C2` (centres unmarked) [Compound 8l], for which, in assay [1], the “SI, selectivity index based” value is 10 and the half-maximal inhibitory concentration (IC50) came out at 0.72 ± 0.1 µM. Besides, in assay [2], the IC50 amounted to 0.071 ± 0.015 µM. Also, at BACE1, the “BACE1 IC50 within fold” value is at most 5 fold and the half-maximal inhibitory concentration (IC50) was determined as 3.4 ± 0.1 µM.
`CCCOc1cc2c(cc1OC)CC(CC1CCN(Cc3ccccc3)CC1)C2=O` (centres unmarked) [Compound 8c, 2-[(1-Benzylpiperidin-4-yl)methyl]-5-methoxy-6-propoxy-2,3-dihydroinden-1-one]: the “SI, selectivity index based” value in assay [1] is 15. For the same compound, the half-inhibitory concentration (IC50) in assay [1] was 2.05 µM and 2.1 µM; in assay [2], 0.14 ± 0.02 µM; on BACE1 it was 6.1 ± 0.1 µM. Further, on BACE1, the “BACE1 IC50 within fold” value is reported as at most 5 fold.
Take `COc1cc2c(cc1OCCCCBr)C(=O)C(CC1CCN(Cc3ccccc3)CC1)C2` (centres unmarked) [Compound 8f, 2-[(1-Benzylpiperidin-4-yl)methyl]-6-[(bromobutyl)oxy]-5-methoxy-2,3-dihydroinden-1-one]: in assay [1], the “SI, selectivity index based” value is listed as 21; the half-maximal inhibitory concentration (IC50) is 1.28 µM and 1.3 µM. Besides, in assay [2], the half-maximal inhibitory concentration (IC50) was determined as 0.061 ± 0.007 µM. In addition, on BACE1, the “BACE1 IC50 within fold” value is reported as at most 5 fold and the half-inhibitory concentration (IC50) was 7.9 ± 2.4 µM.
With `COc1cc2c(cc1OCc1ccc(C)cc1)C(=O)C(CC1CCN(Cc3ccccc3)CC1)C2` (centres unmarked) [Compound 8i], the “SI, selectivity index based” value in assay [1] was found to be 4.3. Further, the IC50 in assay [1] is 0.997 µM and 1 µM; in assay [2], 0.228 µM and 0.23 µM; at BACE1 it was 58 ± 2 µM.
As to `COc1cc2c(cc1OCc1cc(F)ccc1F)C(=O)C(CC1CCN(Cc3ccccc3)CC1)C2` (centres unmarked) [Compound 8r], in assay [1], the “SI, selectivity index based” value was found to be 6.7; the “fold better than donepezil” value worked out at 3 fold; the IC50 is 0.601 µM and 0.6 µM. Moreover, the IC50 in assay [2] was found to be 0.09 ± 0.009 µM. For the same compound, the half-inhibitory concentration (IC50) on BACE1 was around 100 µM.
`COc1cc2c(cc1OCc1ccc([N+](=O)[O-])cc1)C(=O)C(CC1CCN(Cc3ccccc3)CC1)C2` (centres unmarked) [Compound 8k]: in assay [1], the “SI, selectivity index based” value is given as 3.5; the concentration for half-maximal inhibition (IC50) was 0.462 µM and 0.46 µM. The IC50 in assay [2] was 0.126 µM and 0.13 µM.
For the compound `COc1ccc(COc2cc3c(cc2OC)CC(CC2CCN(Cc4ccccc4)CC2)C3=O)cc1` (centres unmarked) [Compound 8j], in assay [1], the “SI, selectivity index based” value amounted to 5.2; the half-inhibitory concentration (IC50) was 0.668 µM and 0.67 µM. Also, in assay [2], the 50% inhibitory concentration (IC50) is 0.125 µM and 0.13 µM.
`COc1cc2c(cc1OCc1c(F)c(F)c(F)c(F)c1F)C(=O)C(CC1CCN(Cc3ccccc3)CC1)C2` (centres unmarked) [Compound 8v]: in assay [1], the “fold more selective for EfBChE (over EeAChE)” value came out at 1.5 fold; the “fold better than donepezil” value is 18 fold; the IC50 was 0.114 µM and 0.11 µM. In assay [2], the IC50 is 0.172 µM and 0.17 µM. In addition, the IC50 on BACE1 turned out to be 29 ± 6 µM.
